Values of other authors as cited in patent US11013777B2, “Aronia extract for enhancing reaction time and attention” (BioActor BV, priority 2017, dated 2021).

Row | absorption in the small intestine (in vivo) | glucuronidated share of the total anthocyanins in plasma and urine (in vivo) | share of the total metabolites found in plasma (humans, plasma) | Compound | appearance in plasma post-ingestion (in vivo)
1 | poor absorption | approximately 55% | – | anthocyanins | Thirty minutes post-ingestion, anthocyanins can be measured in plasma
2 | – | – | around 65% | OC[C@H]1O[C@@H](Oc2cc3c(O)cc(O)cc3[o+]c2-c2ccc(O)c(O)c2)[C@H](O)[C@@H](O)[C@H]1O [cyanidin-3-galactoside] | –
